The text below walks through data of patent publication US8273890B2 (4SC AG, priority 2007, dated 2012).

The structures appear in SMILES notation.

For the assay, the target named is T1, recombinant Plk1 protein (Homo sapiens, UniProt P53350).
T1 construct: histidine tag (N); made in house; host or cells: SF9 insect cells
T1 sequence (P53350 whole entry): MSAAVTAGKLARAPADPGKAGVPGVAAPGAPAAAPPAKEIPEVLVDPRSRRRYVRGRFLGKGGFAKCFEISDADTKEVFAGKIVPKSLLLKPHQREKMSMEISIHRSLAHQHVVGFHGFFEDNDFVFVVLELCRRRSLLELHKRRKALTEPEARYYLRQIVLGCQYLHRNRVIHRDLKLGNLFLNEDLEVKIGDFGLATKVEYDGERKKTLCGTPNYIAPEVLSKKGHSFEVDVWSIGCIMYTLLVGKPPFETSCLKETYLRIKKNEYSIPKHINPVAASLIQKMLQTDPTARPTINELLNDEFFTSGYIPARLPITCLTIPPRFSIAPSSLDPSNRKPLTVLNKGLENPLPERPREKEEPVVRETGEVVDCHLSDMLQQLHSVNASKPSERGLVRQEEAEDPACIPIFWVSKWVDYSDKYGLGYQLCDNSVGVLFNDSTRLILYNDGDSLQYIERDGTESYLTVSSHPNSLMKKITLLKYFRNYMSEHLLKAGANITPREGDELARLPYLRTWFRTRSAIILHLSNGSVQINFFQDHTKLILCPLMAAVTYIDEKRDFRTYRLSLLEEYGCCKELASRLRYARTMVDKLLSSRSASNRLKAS
Briefly: Plk1 kinase activity inhibition assay (33P-ATP, alpha casein substrate, flash plates). The class given is biochemical. To be noted: enzymatic assay, 100 nM Li-ATP, 80 minutes at 30° C. Here is the method:
The inhibition of Plk1 kinase activity can be measured using recombinant Plk1 protein expressed as an N-terminally histidine-tagged protein in SF9 insect cells and alpha casein as substrate. The Plk1 assay is run in 96 well plates by incubating 50 to 100 ng per well recombinant Plk1, 500 ng per well alpha casein (Sigma, # C-6780) as substrate, 10 μl of compound of invention (test compounds were dissolved as 20 mM solutions in dimethylsulfoxide (DMSO) and subsequently diluted), and 100 nM Li-ATP (including ^33P-ATP) in 100 μl of reaction buffer ([…] HEPES, pH 7.5; 3 mM MgCl2; 3 mM MnCl2; 3 μM Na-Orthovanadat; 1 mM DTT; 1 μg/ml PEG 8000) for 80 minutes at 30° C. The reactions are terminated by adding 100 μl stopping buffer (2% H3PO4 for 5 minutes) and are washed 3 times with washing solution (0.9% NaCl). Determining ^33P incorporated into the protein substrate alpha casein, the detection is based on the adhesion of the phosphorylated protein to the surface of scintillator-coated flash plates (Perkin Elmer, USA; #SMP-200). Phosphorylation of alpha casein is measured by counting the radioactivity bound to the plate for 60 sec. using a plate reader (Perkin Elmer, USA; Wallac Microbeta). By this method, the IC50 value of the Plk1 inhibition is determined as described above.
For `C[C@@H](Oc1cc(-n2cnc3cnc(CN4CC(O)C4)cc32)sc1C(N)=O)c1ccccc1C(F)(F)F` [Example 96, 5-{6-[(3-hydroxyazetidin-1-yl)methyl]-1H-imidazo[4,5-c]pyridin-1-yl}-3-{(1R)-1-[2-(trifluoromethyl)phenyl]ethoxy}thiophene-2-carboxamide], the IC50 was less than 10 nM.

On to `C[C@@H](Oc1cc(-n2cnc3cnc(CN4CCN(C(=O)c5ccccc5)CC4)cc32)sc1C(N)=O)c1ccccc1C(F)(F)F` [Example 78, 5-{6-[(4-benzoylpiperazin-1-yl)methyl]-1H-imidazo[4,5-c]pyridin-1-yl}-3-{(1R)-1-[2-(trifluoromethyl)phenyl]ethoxy}thiophene-2-carboxamide], for which the half-maximal inhibitory concentration (IC50) is 10 to 100 nM.

For `C[C@@H](Oc1cc(-n2cnc3cnc(CN4CCN(C)CC4)cc32)sc1C(N)=O)c1ccccc1Br` [Example 98, 3-[(1R)-1-(2-bromophenyl)ethoxy]-5-{6-[(4-methylpiperazin-1-yl)methyl]-1H-imidazo[4,5-c]pyridin-1-yl}thiophene-2-carboxamide], the concentration for half-maximal inhibition (IC50) was less than 10 nM.

Consider `NC(=O)c1sc(-n2cnc3ccncc32)cc1OCc1cccc(C(F)(F)F)c1` [Example 30, 5-(3H-imidazo[4,5-c]pyridin-3-yl)-3-{[3-(trifluoromethyl)benzyl]oxy}thiophene-2-carboxamide], for which the IC50 fell in the range of 100 to 1000 nM.

For the compound `COc1ccc2c(ncn2-c2cc(OCc3ccccc3C(F)(F)F)c(C(N)=O)s2)n1` [Example 23, 5-(5-methoxy-1H-imidazo[4,5-b]pyridin-1-yl)-3-{[2-(trifluoromethyl)benzyl]oxy}thiophene-2-carboxamide], the IC50 was in the range of 10 to 100 nM.

Take `NC(=O)c1sc(-n2cnc3ncccc32)cc1OCc1ccccc1C(F)(F)F` [Example 20, 5-(1H-Imidazo[4,5-b]pyridin-1-yl)-3-{[2-(trifluoromethyl)benzyl]oxy}thio-phene-2-carboxamide]: the half-inhibitory concentration (IC50) lay within 100 to 1000 nM.

As for `C[C@@H](Oc1cc(-n2cnc3cnc(CNC4CCN(C)CC4)cc32)sc1C(N)=O)c1ccccc1C(F)(F)F` [Example 73, 5-(6-{[(1-methylpiperidin-4-yl)amino]methyl}-1H-imidazo[4,5-c]pyridin-1-yl)-3-{(1R)-1-[2-(trifluoromethyl)phenyl]ethoxy}thiophene-2-carboxamide], the IC50 was less than 10 nM.

With `CC(Oc1cc(-n2cnc3cc(CN4CCOCC4)ncc32)sc1C(N)=O)c1ccccc1F` (stereo not drawn) [Example 158, 3-[-1-(2-fluorophenyl)ethoxy]-5-[6-(morpholin-4-ylmethyl)-3H-imidazo[4,5-c]pyridin-3-yl]thiophene-2-carboxamide], the IC50 was 1000 to 10000 nM.

`NC(=O)c1sc(-n2cnc3ccncc32)cc1OCc1c(Cl)cccc1Cl` [Example 43, 3-[(2,6-dichlorobenzyl)oxy]-5-(3H-imidazo[4,5-c]pyridin-3-yl)thiophene-2-carboxamide]: the 50% inhibitory concentration (IC50) lay within 10 to 100 nM.

For the compound `NC(=O)c1sc(-n2cnc3cnc(CO)cc32)cc1OCc1ccccc1C(F)(F)F` [Example 9, 5-[6-(Hydroxymethyl)-1H-imidazo[4,5-c]pyridin-1-yl]-3-{[2-(trifluoromethyl)benzyl]oxy}thiophene-2-carboxamide], the IC50 was 10 to 100 nM.

For the compound `C[C@@H](Oc1cc(-n2cnc3cc(CNC4CC4)ncc32)sc1C(N)=O)c1ccccc1C(F)(F)F` [Example 115, 5-{6-[(cyclopropylamino)methyl]-3H-imidazo[4,5-c]pyridin-3-yl}-3-{(1R)-1-[2-(trifluoromethyl)phenyl]ethoxy}thiophene-2-carboxamide], the IC50 lay within 10 to 100 nM.

Turning to `C[C@@H](Oc1cc(-n2cnc3cnc(CN4CCN(CCCO)CC4)cc32)sc1C(N)=O)c1ccccc1C(F)(F)F` [Example 108, 5-(6-{[4-(3-hydroxypropyl)piperazin-1-yl]methyl}-1H-imidazo[4,5-c]pyridin-1-yl)-3-{(1R)-1-[2-(trifluoromethyl)phenyl]ethoxy}thiophene-2-carboxamide], the IC50 was less than 10 nM.

`C[C@@H](Oc1cc(-n2cnc3cnc(CN4CCCN(C)CC4)cc32)sc1C(N)=O)c1ccccc1Cl` [Example 129, 3-[(1R)-1-(2-chlorophenyl)ethoxy]-5-{6-[(4-methyl-1,4-diazepan-1-yl)methyl]-1H-imidazo[4,5-c]pyridin-1-yl}thiophene-2-carboxamide]: the IC50 was less than 10 nM.

On to `CC(Oc1cc(-n2cnc3cnc(CO)cc32)sc1C(N)=O)c1ccccc1OC(F)F` (stereo not drawn) [Example 53], for which the concentration for half-maximal inhibition (IC50) is less than 10 nM.

Consider `NC(=O)c1sc(-n2cnc3cccnc32)cc1OCc1ccccc1C(F)(F)F` [Example 19, 5-(3H-Imidazo[4,5-b]pyridin-3-yl)-3-{[2-(trifluoromethyl)benzyl]oxy}thio-phene-2-carboxamide], for which the half-maximal inhibitory concentration (IC50) is 10 to 100 nM.

Regarding `N#Cc1ccccc1COc1cc(-n2cnc3cnccc32)sc1C(N)=O` [Example 39, 3-[(2-cyanobenzyl)oxy]-5-(1H-imidazo[4,5-c]pyridin-1-yl)thiophene-2-carboxamide], the IC50 lay in the range of 10 to 100 nM.

With `CCC(Oc1cc(-n2cnc3cnc(CN4CCN(CC)CC4)cc32)sc1C(N)=O)c1ccccc1Cl` (stereo not drawn) [Example 142], the IC50 was less than 10 nM.

For the compound `CC(Oc1cc(-n2cnc3cnccc32)sc1C(N)=O)c1ccccc1Cl` (stereo not drawn) [Example 15, 3-[1-(2-Chlorophenyl)ethoxy]-5-(1H-imidazo[4,5-c]pyridin-1-yl)thio-phene-2-carboxamide], the IC50 is 10 to 100 nM.

In the case of `C[C@@H](Oc1cc(-n2cnc3cnc(CO)cc32)sc1C(N)=O)c1ccccc1Br` [Example 52, 3-[(1R)-1-(2-bromophenyl)ethoxy]-5-[6-(hydroxymethyl)-1H-imidazo[4,5-c]pyridin-1-yl]thiophene-2-carboxamide], the IC50 is less than 10 nM.

As for `CCNCc1cc2c(cn1)ncn2-c1cc(O[C@H](C)c2ccccc2C(F)(F)F)c(C(N)=O)s1` [Example 112, 5-{6-[(ethylamino)methyl]-1H-imidazo[4,5-c]pyridin-1-yl}-3-{(1R)-1-[2-(trifluoromethyl)phenyl]ethoxy}thiophene-2-carboxamide], the concentration for half-maximal inhibition (IC50) was in the range of 10 to 100 nM.

In the case of `C[C@@H](Oc1cc(-n2cnc3cnc(CNCCN4CCN(C)CC4)cc32)sc1C(N)=O)c1ccccc1C(F)(F)F` [Example 88, 5-[6-({[2-(4-methylpiperazin-1-yl)ethyl]amino}methyl)-1H-imidazo[4,5-c]pyridin-1-yl]-3-{(1R)-1-[2-(trifluoromethyl)phenyl]ethoxy}thiophene-2-carboxamide], the half-inhibitory concentration (IC50) is 10 to 100 nM.

With `C[C@@H](Oc1cc(-n2cnc3cnc(CN4CCOCC4)cc32)sc1C(N)=O)c1ccccc1C(F)(F)F` [Example 62, 5-[6-(morpholin-4-ylmethyl)-1H-imidazo[4,5-c]pyridin-1-yl]-3-{(1R)-1-[2-(trifluoromethyl)phenyl]ethoxy}thiophene-2-carboxamide], the IC50 fell in the range of 10 to 100 nM.

For the compound `CCc1ccccc1COc1cc(-n2cnc3cnc(CN4CCN(C)CC4)cc32)sc1C(N)=O` [Example 153, 3-[(2-ethylbenzyl)oxy]-5-{6-[(4-methylpiperazin-1-yl)methyl]-1H-imidazo[4,5-c]pyridin-1-yl}thiophene-2-carboxamide], the 50% inhibitory concentration (IC50) is less than 10 nM.

Take `CC1CN(Cc2cc3c(cn2)ncn3-c2cc(O[C@H](C)c3ccccc3C(F)(F)F)c(C(N)=O)s2)CCN1C` (stereo partly drawn) [Example 74, 5-{6-[(3,4-dimethylpiperazin-1-yl)methyl]-1H-imidazo[4,5-c]pyridin-1-yl}-3-{(1R)-1-[2-(trifluoromethyl)phenyl]ethoxy}thiophene-2-carboxamide]: the IC50 is less than 10 nM.
